The values that follow come from patent US8865894B2, “Oxazolidin-2-one compounds and uses thereof” (Novartis AG, priority 2012, dated 2014).

The target in this test is PI3Kgamma (Homo sapiens, UniProt P48736). Nature of the test: Biochemical PI3Kgamma (TR-FRET Adapta Universal Kinase Assay). The note with it: mean of n measurements, read-out: PIK3g/ IC50. The method, then: Test compounds were dissolved in DMSO (10 mM) and transferred into 1.4 mL flat bottom or V-shaped Matrix tubes carrying a unique 2D matrix chip by individual Novartis compound hubs. The numbers of these chips were distinctively linked to Novartis Pharma Numbers. The stock solutions were stored at −20° C. if not used immediately. For the test procedure the vials were defrosted and identified by a scanner whereby a working sheet was generated that guided the subsequent working steps.
PI3Kgamma, sequence (P48736 whole entry, species assumed): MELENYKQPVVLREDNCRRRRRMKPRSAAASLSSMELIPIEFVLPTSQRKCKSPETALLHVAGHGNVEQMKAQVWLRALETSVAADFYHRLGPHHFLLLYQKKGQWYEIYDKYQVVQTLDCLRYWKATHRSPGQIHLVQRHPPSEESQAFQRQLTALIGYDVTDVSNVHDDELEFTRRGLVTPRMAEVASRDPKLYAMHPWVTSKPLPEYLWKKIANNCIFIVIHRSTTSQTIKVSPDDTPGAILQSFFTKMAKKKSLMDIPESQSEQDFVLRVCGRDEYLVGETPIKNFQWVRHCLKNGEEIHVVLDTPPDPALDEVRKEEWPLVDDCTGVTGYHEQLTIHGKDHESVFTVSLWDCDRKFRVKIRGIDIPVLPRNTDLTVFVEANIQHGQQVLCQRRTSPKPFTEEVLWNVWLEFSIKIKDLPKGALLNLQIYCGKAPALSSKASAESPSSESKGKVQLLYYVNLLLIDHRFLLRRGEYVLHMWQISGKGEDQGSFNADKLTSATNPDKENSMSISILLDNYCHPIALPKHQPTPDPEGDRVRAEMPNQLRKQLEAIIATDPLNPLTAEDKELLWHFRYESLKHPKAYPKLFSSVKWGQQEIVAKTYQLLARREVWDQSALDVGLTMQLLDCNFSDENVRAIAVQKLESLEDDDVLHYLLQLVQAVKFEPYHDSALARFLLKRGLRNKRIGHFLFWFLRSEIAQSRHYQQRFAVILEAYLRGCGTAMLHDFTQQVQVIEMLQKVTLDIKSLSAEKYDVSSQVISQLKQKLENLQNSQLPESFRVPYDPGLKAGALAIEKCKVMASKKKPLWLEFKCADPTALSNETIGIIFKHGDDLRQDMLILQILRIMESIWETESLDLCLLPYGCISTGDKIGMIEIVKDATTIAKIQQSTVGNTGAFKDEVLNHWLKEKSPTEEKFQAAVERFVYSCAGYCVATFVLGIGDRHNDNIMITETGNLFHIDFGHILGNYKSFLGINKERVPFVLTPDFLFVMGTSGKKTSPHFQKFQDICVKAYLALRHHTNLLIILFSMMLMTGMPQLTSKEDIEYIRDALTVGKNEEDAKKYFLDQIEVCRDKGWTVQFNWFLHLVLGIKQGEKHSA
Compounds were either manually diluted in DMSO for individual experiments (96 wells enabling 10 cpds at 8 (single points) concentrations) as described in or prepared as described below if tested for profiling in 384-wells. This format enabled the assay of maximally 40 individual test compounds at 8 concentrations (single points) including 4 reference compounds. The dilution protocol included the production of “pre-dilution plates”, “master plates” and “assay plates”.
96 polypropylene well plates were used as pre-dilution plates. A total of 4 pre-dilution plates were prepared including 10 test compounds each on the plate positions A1-A10, one standard compound at A11 and one DMSO control at A12. Programs have been written to run these pipetting steps on the HamiltonSTAR robots.
100 μL of individual compound dilutions including standard compound and controls of the 4 “pre-dilution plates” were transferred into a 384 “master plate” including the following concentrations 1,820, 564, 182, 54.6, 18.2, 5.46, 1.82 and 0.546 μM, respectively in 90% DMSO.
Identical “assay plates” were then prepared by pipetting 50 nL each of compound dilutions of the “master plates” into 384-well “assay plates”. The compounds were mixed with 4.5 μL of assays components plus 4.5 μL enzyme corresponding to a 1:181 dilution enabling the final concentration of 10, 3.0, 1.0, 0.3, 0.1, 0.03, 0.01 and 0.003 μM, respectively. The preparation of the “master plates” was handled by the Matrix PlateMate Plus robot and replication of “assay plates” by the HummingBird robot.
The TR-FRET Adapta™ Universal Kinase Assay Kit was purchased from Invitrogen Corporation (Carlsbad/CA, USA) (Cat. No. PV5099). The kit contains the following reagents: Adapta Eu-anti-ADP Antibody (Europium labeled anti-ADP antibody in HEPES buffered saline, Cat. No. PV5097), Alexa Fluor® 647-labeled ADP tracer (Alexa Fluor® 647-labeled ADP tracer in HEPES buffered saline, Cat. No. PV5098), proprietary TR-FRET dilution buffer pH 7.5 (Cat. No. PV3574).
PIK3CD substrate Phosphatidylinositol was obtained from Invitrogen (vesicules consisting of 2 mM PI in 50 mM HEPES pH7.5; Cat. No. PV5371). PIK3CG substrate Phosphatidylinositol-4,5-bisphosphate (PIP(4,5)2 was obtained from Invitrogen (PIP2:PS large unilamellar vesicules consisting of 1 mM PIP2: 19 mM PS in 50 mM HEPES pH7.5, 3 mM MgCl2, 1 mM EGTA; Cat. No. PV5100).
Time-Resolved Fluorescence Resonance Energy Transfer (TR-FRET) is a technology based on energy transfer between two adjacent dyes, from an excited electron in one dye (the donor) to an electron of an adjacent dye (the acceptor) through resonance, then released as a photon. This energy transfer is detected by an increase in the fluorescence emission of the acceptor, and a decrease in the fluorescence emission of the donor. TR-FRET assays for protein kinases use a long-lifetime lanthanide Terbium or Europium chelates as the donor species which overcome interference from compound autofluorescence or light scatter from precipitated compounds, by introducing a delay after excitation by a flashlamp excitation source. Results are often expressed as a ratio of the intensities of the acceptor and donor fluorophores. The ratiometric nature of such a value corrects for differences in assay volumes between wells, as well as corrects for quenching effects due to colored compounds. The Adapta™ assay can be divided into two phases: a kinase reaction phase and an ADP detection phase. […]

As for `Nc1ncc(-c2cc(N3C(=O)O[C@H]4COC[C@H]43)nc(N3CCOCC3)n2)c(C(F)(F)F)n1` [Example 21, (3aR,6aR)-3-(2′-amino-2-morpholino-4′-(trifluoromethyl)-[4,5′-bipyrimidin]-6-yl)-tetrahydrofuro[3,4-d]oxazol-2(3H)-one], the IC50 was 370 nM.
Take `C[C@H]1[C@@H](CCO)OC(=O)N1c1cc(-c2cnc(N)nc2C(F)(F)F)nc(N2CCOCC2)n1` [Example 23, (4S,5R)-3-(2′-Amino-2-morpholino-4′-(trifluoromethyl)-[4,5′-bipyrimidin]-6-yl)-5-(2-hydroxyethyl)-4-methyloxazolidin-2-one]: the IC50 stood at 207 nM.
